Experimental data reported in US20230150951A1, “2,5- OR 2,6-DISUBSTITUTED HYDROQUINONE DERIVATIVES WITH AT LEAST ONE CARBOXY, SULFO OR AMIDO GROUP USEFUL AS MEDICAMENTS” (OM PHARMA SA, priority 2020, published 2023).
Like-named read-outs stand apart in the source and are kept apart here.

Columns and labels:
Type in all cases: cell-based
TNF-beta = assay: Cytokine release after LPS induction on human whole blood: TNFβ
Procedure: (§1) Aim of this in vitro method is to assess compounds effects on release of a panel of cytokines from whole blood following lipopolysaccharide (LPS) induced inflammatory reaction. Whole blood was incubated with compounds for 1 h prior to LPS induction. Cytokine levels in blood were measured using a multiplex FACS-based panel.
(§2) IC50 values determined for the tested compounds expressed in microM [μM] and the values for the inhibition of cytokines were listed for each compound.
(§3) Effect on cytokines release after LPS induction was performed on the compounds dissolved in DMSO or H2O to reach 10-fold concentrated stock solutions and dissolved in culture media.
(§4) Test system: Whole blood was removed from a single donor (into lithium heparin coated tubes; BD Vacutainer; 367886) and diluted 1:5 with RPMI 1640 (Thermo Fisher, 61870036). Within 30 minutes of sampling, blood was incubated with compounds for 1 h prior to LPS stimulation (O111:B4—Sigma L4391; 10 ng/ml final concentration). Stimulation continued under standard cell culture conditions (37° C. with 5% CO2) overnight (18 h), after which plates were centrifuged and supernatant removed and frozen at −80° C. until used for analyses.
(§5) Dilution of test compounds: 10×concentrated solutions (concerning to the final assay concentrations) of each test compound were prepared with the appropriate solvent (in DMSO or in water). These 10× compound solutions (10 μl) were then added to 90 μl pre-diluted whole blood (whole blood: RPMI1640, 1:5) resulting in the final assay concentration.
(§6) Test method: Diluted whole blood (80 μl) was pre-incubated with compounds (10 μl) to give final assay concentrations of 100, 30, 10, 3, 1, 0.3 and 0.1×10^−6M. Blood was incubated at 37° C. with 5% CO2 for 1 h. LPS was diluted in cell culture media to a concentration of […]; 10 μl was added to the whole blood to give a final concentration of 10 ng/ml. Plates were incubated at 37° C. for 18 h. Plates were centrifuged at 3,000 RPM for 5 minutes at 4° C. and supernatant removed and frozen at −80° C. until FACS analysis was carried out.
(§7) Cytokine release was measured using a custom multiplex system (ELISA Genie) according to manufacturers instructions. Prepared samples were run on an Attune NxT flow cytometer (Thermo Fisher).
(§8) Quantification of cytokine release inhibition: known concentration standards were run as part of the cytokine panel to allow quantification of each cytokine concentration in each sample. This was carried out using FCAP Array v3.0 software.
(§9) Results: The dose response relationship on cytokine release following LPS induction of inflammatory response in whole blood was assessed for all compounds. IC50 values were determined for each compound for a panel of cytokines (GM-CSF, IFN-gamma, IL-1beta, IL-2, IL-4, IL-5, IL-6, IL-8, IL-9, IL-10, IL-12p40, IL-13, IL-17A, IL-17F, IL-18, IL-21, IL-22, IL-33, TGF-beta, TNF-alpha, TNF-beta).

IL-12p70 = assay: Cytokine release after LPS induction on human whole blood: IL-12p70
IL-13 = assay: Cytokine release after LPS induction on human whole blood: IL-13
Procedure: as §1, §2, §3, §4, §5, §6, §7, §8, §9

IL-33 = assay: Cytokine release after LPS induction on human whole blood: IL-33
Procedure: as §1, §2, §3, §4, §5, §6, §7, §8, §9

Human neutrophils = assay: Neutrophil adhesion under static conditions; conditions: fMLP-stimulated adhesion to fibrinogen; method: 40 μM and 80 μM, concentration of the value not stated
Outline: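 Donor buffy-coat neutrophils (3×10^6/ml, PBS with Ca/Mg, 10% FCS, pH 7.2) preincubated 30 min at 37° C with 40 μM or 80 μM compound, then stimulated 1 min at 37° C with 1 nM fMLP on fibrinogen-coated glass. Adherent cells fixed and counted by computer; mean ± SD, unpaired t-test.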

IL-2 = assay: Cytokine release after LPS induction on human whole blood: IL-2
Procedure: as §1, §2, §3, §4, §5, §6, §7, §8, §9

IL-5 = assay: Cytokine release after LPS induction on human whole blood: IL-5
Procedure: as §1, §2, §3, §4, §5, §6, §7, §8, §9

IL-6 = assay: Cytokine release after LPS induction on human whole blood: IL-6
Procedure: as §1, §2, §3, §4, §5, §6, §7, §8, §9

IL-17F = assay: Cytokine release after LPS induction on human whole blood: IL-17F
Procedure: as §1, §2, §3, §4, §5, §6, §7, §8, §9

IL-4 = assay: Cytokine release after LPS induction on human whole blood: IL-4
Procedure: as §1, §2, §3, §4, §5, §6, §7, §8, §9

[1] = Homo sapiens, LPS 10 ng/ml, 18 h, read-out: Whole Blood: TNF β IC50
[2] = human whole blood, inhibition of LPS induced inflammation, read-out: IC50 β
[3] = Homo sapiens, LPS 10 ng/ml, 18 h, read-out: Whole Blood: IL-12p70 IC50
[4] = human whole blood, inhibition of LPS induced inflammation, read-out: IC50 IL-12p70
[5] = Homo sapiens, LPS 10 ng/ml, 18 h, read-out: Whole Blood: IL-13 IC50
[6] = human whole blood, inhibition of LPS induced inflammation, read-out: IC50 IL-13
[7] = Homo sapiens, LPS 10 ng/ml, 18 h, read-out: Whole Blood: IL-33 IC50
[8] = human whole blood, inhibition of LPS induced inflammation, read-out: IC50 IL-33
[9] = Homo sapiens, LPS 10 ng/ml, 18 h, read-out: Whole Blood: IL-2 IC50
[10] = human whole blood, inhibition of LPS induced inflammation, read-out: IC50 IL-2
[11] = Homo sapiens, LPS 10 ng/ml, 18 h, read-out: Whole Blood: IL-5 IC50
[12] = human whole blood, inhibition of LPS induced inflammation, read-out: IC50 IL-5
[13] = Homo sapiens, LPS 10 ng/ml, 18 h, read-out: Whole Blood: IL-6 IC50
[14] = human whole blood, inhibition of LPS induced inflammation, read-out: IC50 IL-6
[15] = Homo sapiens, LPS 10 ng/ml, 18 h, read-out: Whole Blood: IL-17F IC50
[16] = human whole blood, inhibition of LPS induced inflammation, read-out: IC50 IL-17F
[17] = Homo sapiens, LPS 10 ng/ml, 18 h, read-out: Whole Blood: IL-4 IC50
[18] = human whole blood, inhibition of LPS induced inflammation, read-out: IC50 IL-4

SMILES | IC50 (TNF-beta; [1]) [µM] | IC50 (TNF-beta; [2]) [µM] | IC50 (IL-12p70; [3]) [µM] | IC50 (IL-12p70; [4]) [µM] | IC50 (IL-13; [5]) [µM] | IC50 (IL-13; [6]) [µM] | IC50 (IL-33; [7]) [µM] | IC50 (IL-33; [8]) [µM] | Neutrophil adhesion inhibition (Human neutrophils) [%] | IC50 (IL-2; [9]) [µM] | IC50 (IL-2; [10]) [µM] | IC50 (IL-5; [11]) [µM] | IC50 (IL-5; [12]) [µM] | IC50 (IL-6; [13]) [µM] | IC50 (IL-6; [14]) [µM] | IC50 (IL-17F; [15]) [µM] | IC50 (IL-17F; [16]) [µM] | IC50 (IL-4; [17]) [µM] | IC50 (IL-4; [18]) [µM]
O=C(O)c1cc(NC(=O)c2cc(O)c(C(=O)Nc3ccc(O)c(C(=O)O)c3)cc2O)ccc1O [Ic-007a, 5-(4-(3-carboxy-4-hydroxyphenylaminocarbonyl)-2,5-dihydroxybenzamido)-2-hydroxy benzoic acid] | 6.52 | 6.52 | 0.49 | 0.49 | 30.1 | 30.1 | 18.4 | 18.4 | 57.5 | > 100 | 100 | > 100 | 100 | 0.09 | 0.09 | 22.9 | 22.9 | > 100 | 100
O=C(O)c1cc(O)c(C(=O)Nc2ccccc2-c2nnn[nH]2)cc1O [Ia-001a-Tz, 4-(2-(1H-tetrazol-5-yl)phenyl-aminocarbonyl)-2,5-dihydroxybenzoic acid] | 53 | 53 | 32.4 | 32.4 | 32.1 | 32.1 | 23.6 | 23.6 | 69.75 | 7.99 | 7.99 | > 100 | 100 | 0.75 | 0.75 | 46.5 | 46.5 | > 100 | 100
O=C(O)c1cc(O)c(C(=O)Nc2ccc(-c3nnn[nH]3)cc2)cc1O [Ia-003a-Tz, 4-(4-(1H-tetrazol-5-yl)phenyl-aminocarbonyl)-2,5-dihydroxybenzoic acid] | 55 | 55 | 1.26 | 1.26 | 89.6 | 89.6 | 72.2 | 72.2 | 30.33 | 43 | 43 | > 100 | 100 | 1.41 | 1.41 | 83.9 | 83.9 | > 100 | 100
O=C(O)Cc1cc(O)c(C(=O)Nc2ccccc2-c2nnn[nH]2)cc1O [IIIa-001aTz] | 0.23 | 0.23 | 0.48 | 0.48 | 0.15 | 0.15 | 0.14 | 0.14 | 39.74 | > 100 | 100 | > 100 | 100 | 1.98 | 1.98 | 0.16 | 0.16 | > 100 | 100
O=C(O)c1cc(O)c(C(=O)Nc2ccccc2C(=O)O)cc1O [Ia-001a, 4-(2-carboxyphenylaminocarbonyl)-2,5-dihydroxybenzoic acid] | 13.2 | 13.2 | 1.5 | 1.5 | 26.4 | 26.4 | 19.3 | 19.3 | 44.3 | 94.3 | 94.3 | > 100 | 100 | 1.24 | 1.24 | 14.7 | 14.7 | > 100 | 100
